This is an account of results in US10040815B2, “3-substituted 5-amino-6H-thiazolo[4,5-d]pyrimidine-2,7-dione compounds for the treatment and prophylaxis of virus infection” (Hoffmann-La Roche Inc., priority 2014, dated 2018).

In the first data set the test system is human hepatocytes. The experiment in a line: Metabolic conversion of prodrugs to active forms in human hepatocytes (LC-MS/MS). The conditions noted are these: after 3-hour incubation of 50 μM of prodrugs; product 1-A, 14-A or Penciclovir. The class given is in vitro ADME. An excerpt:
Metabolism of Prodrugs: Formula (II) or Formula (IIa) A study was undertaken to evaluate the metabolic conversion of prodrugs, formula (II) or formula (IIa), to compounds of formula (I) or formula (Ia) of the present invention. The produgs, formula (II) or formula (IIa), can be metabolized to the active compound of formula (I) or formula (Ia) and other compounds of the invention in the body if they are served as prodrugs. Hepatocytes are often used to assess the degree of metabolic conversion of prodrugs in the body of animal or human. A study was undertaken to evaluate the metabolic conversion of prodrugs, Example 2-A, Example 3-A, Example 4-A, Example 16-A and Example 17-A, to the corresponding active forms, Example 1-A and Example 14-A, in the presence of human hepatocytes. The formation of active forms, Example 1-A and Example 14-A, were monitored in the study. For comparison, the metabolic conversion of famciclovir to penciclovir was also assessed. Cryopreserved hepatocytes plating medium (Cat.#: PY-HMD-01) was purchased from RILD Research Institute for Liver Diseases (Shanghai) Co. Ltd. Cryopreserved human hepatocyte (Cat.#: X008005, Lot#:VRR) was purchased from In Vitro Technologies (Baltimore, Md.). The stock hepatocyte suspension was prepared from cryopreserved hepatocytes in plating medium at the concentration of 1.8×10^6 cells/mL. […] Reaction suspensions were prepared in 24-well cell culture plate by mixing 200 μL of hepatocytes suspension (Cyno or human) and 200 μL of working solution. The final incubation contained 0.9×10^6 cells/mL and 50 μM compound. The above mixtures were incubated at 37° C. in a humidified 5% CO2 atmosphere, with a 150 rpm shaking. After 180 min of incubation, 200 μL of the incubation mixture was transferred to 1.5 mL tube and quenched with 400 μL stop solution (ice-cold acetonitrile with 0.2 μM Tolbutamide as internal standard). The samples were centrifuged at 12000 rpm for 10 minutes and the resultant supernatants were subjected to LC-MS/MS analysis. The calibration curves were prepared in the following way. To a 200 μL of cell suspension (cell density of 1.8 million cells/mL), 198 μL of hepatocyte plating medium and 2 μL of the appropriate concentration of the compound in DMSO were added. Samples were mixed thoroughly and 200 μL of the mixture was transferred to 400 uL of the stop solution (see above). […] The compounds were quantified on an API5500 […] instrument in the ESI-Positive MRM mode.
`Nc1ncc2sc(=O)n([C@@H]3O[C@H](C(O)C4CC4)C[C@H]3O)c2n1` (stereo partly drawn) [Example 17-A, 5-Amino-3-[(2R,3R,5S)-5-[cyclopropyl(hydroxy)methyl]-3-hydroxy-tetrahydrofuran-2-yl]thiazolo[4,5-d]pyrimidin-2-one]: the “Product Concentration in human hepatocytes (metabolized product formed from prodrug)” value was 7.3 µM.

The data set is the same for the next values; noted with them: human hepatocytes; active metabolites Example 1-A, Example 14-A and penciclovir, respectively.
With `CC(=O)OC(C1CC1)[C@@H]1C[C@@H](O)[C@H](n2c(=O)sc3cnc(N)nc32)O1` (single isomer, unassigned) [Example 16-A], the “metabolic conversion of prodrug to active metabolite in human hepatocytes” value (from here on “metabolic conversion of prodrug”) is on record as “metabolized to yield the corresponding active metabolites”.

Consider `CCC(OC(C)=O)[C@@H]1C[C@@H](O)[C@H](n2c(=O)sc3cnc(N)nc32)O1` (single isomer, unassigned) [Example 4-A], for which the “metabolic conversion of prodrug” value is recorded as “metabolized to yield the corresponding active metabolites”.

Take `CCC(O)[C@@H]1C[C@@H](O)[C@H](n2c(=O)sc3cnc(N)nc32)O1` (single isomer, unassigned) [Example 2-A]: the “metabolic conversion of prodrug” value is given as “metabolized to yield the corresponding active metabolites”.

On to `CC(=O)OCC(CCn1cnc2cnc(N)nc21)COC(C)=O` [Famciclovir, famciclovir, reference compound], for which the “metabolic conversion of prodrug” value is listed as “metabolized to yield the corresponding active metabolites”.

As to `Nc1ncc2sc(=O)n([C@@H]3O[C@H](C(O)C4CC4)C[C@H]3O)c2n1` (stereo partly drawn) [Example 17-A, 5-Amino-3-[(2R,3R,5S)-5-[cyclopropyl(hydroxy)methyl]-3-hydroxy-tetrahydrofuran-2-yl]thiazolo[4,5-d]pyrimidin-2-one], the “metabolic conversion of prodrug” value was “metabolized to yield the corresponding active metabolites”.

On to `CCC(O)[C@@H]1C[C@@H](OC(C)=O)[C@H](n2c(=O)sc3cnc(N)nc32)O1` (single isomer, unassigned) [Example 3-A], for which the “metabolic conversion of prodrug” value is given as “metabolized to yield the corresponding active metabolites”.

The target in a further data set is human TLR7 (Homo sapiens (Human), UniProt Q9NYK1). The data set can be described thus: HEK293-Blue-hTLR-7 cells assay (SEAP reporter, NF-κB activation). The class given is cell-based.
human TLR7, sequence (Q9NYK1 27-1049): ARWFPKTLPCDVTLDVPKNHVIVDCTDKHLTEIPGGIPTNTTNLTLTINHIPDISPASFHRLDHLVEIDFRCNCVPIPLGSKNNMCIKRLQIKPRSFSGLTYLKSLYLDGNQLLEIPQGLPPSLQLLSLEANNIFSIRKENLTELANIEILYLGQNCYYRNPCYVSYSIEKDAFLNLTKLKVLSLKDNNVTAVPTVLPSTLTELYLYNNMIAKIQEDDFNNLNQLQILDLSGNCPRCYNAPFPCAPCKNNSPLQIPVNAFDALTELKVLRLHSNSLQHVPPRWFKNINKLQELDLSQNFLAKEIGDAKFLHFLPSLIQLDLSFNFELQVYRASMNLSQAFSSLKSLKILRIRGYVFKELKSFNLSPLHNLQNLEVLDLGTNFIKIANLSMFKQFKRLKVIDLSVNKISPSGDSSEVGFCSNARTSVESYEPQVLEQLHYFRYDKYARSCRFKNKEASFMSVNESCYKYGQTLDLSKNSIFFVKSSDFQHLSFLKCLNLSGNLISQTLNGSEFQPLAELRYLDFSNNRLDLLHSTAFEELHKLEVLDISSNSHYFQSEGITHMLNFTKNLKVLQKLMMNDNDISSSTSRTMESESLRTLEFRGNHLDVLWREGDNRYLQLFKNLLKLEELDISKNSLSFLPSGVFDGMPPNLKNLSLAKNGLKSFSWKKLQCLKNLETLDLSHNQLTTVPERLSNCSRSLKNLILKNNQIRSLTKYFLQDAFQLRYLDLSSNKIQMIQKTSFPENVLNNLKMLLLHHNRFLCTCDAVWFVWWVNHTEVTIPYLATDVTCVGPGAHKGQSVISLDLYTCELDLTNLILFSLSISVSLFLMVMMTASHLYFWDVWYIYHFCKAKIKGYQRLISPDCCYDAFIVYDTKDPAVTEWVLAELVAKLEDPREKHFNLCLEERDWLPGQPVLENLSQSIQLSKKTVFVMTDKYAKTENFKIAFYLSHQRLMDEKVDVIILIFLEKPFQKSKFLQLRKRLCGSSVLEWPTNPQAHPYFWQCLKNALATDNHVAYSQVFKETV
Details: not given
An excerpt:
HEK293-Blue-hTLR-7 Cells Assay: A stable HEK293-Blue-hTLR-7 cell line was purchased from InvivoGen (Cat.#: hkb-htlr7, San Diego, Calif., USA). These cells were designed for studying the stimulation of human TLR7 by monitoring the activation of NF-κB. A SEAP (secreted embryonic alkaline phosphatase) reporter gene was placed under the control of the IFN-β[…] minimal promoter fused to five NF-κB and AP-1-binding sites. The SEAP was induced by activating NF-κB and AP-1 via stimulating HEK-Blue hTLR7 cells with TLR7 ligands. Therefore the reporter expression was regulated by the NF-κB promoter upon stimulation of human TLR7 for 20 hours. The cell culture supernatant SEAP reporter activity was determined using QUANTI-Blue™ kit (Cat.#: rep-qb1, Invivogen, San Diego, Calif., USA) at a wavelength of 640 nm, a detection medium that turns purple or blue in the presence of alkaline phosphatase. […] Then 20 μL of the supernatant from each well was incubated with 180 μL Quanti-blue substrate solution at 37° C. for 2 hours and the absorbance was read at 620˜655 nm using a spectrophotometer. […] Hiroaki Hemmi et al, Nature Immunology 3, 196-200 (2002).
The EC50 is the concentration that produces a half-maximal response. The compound `CC[C@H](O)[C@@H]1C[C@@H](C)[C@H](n2c(=O)sc3c(=O)[nH]c(N)nc32)O1` [Example 28, 5-amino-3-[(2R,3R,5S)-5-[(1S)-1-hydroxypropyl]-3-methyl-tetrahydrofuran-2-yl]-6H-thiazolo[4,5-d]pyrimidine-2,7-dione] gave an EC50 of 10 µM.

Still in this data set, the particulars now being: HEK293-Blue-hTLR-7 cells, 20 hours incubation, SEAP reporter; read-out: HEK293- hTLR-7 EC50.
As to `CC#CC(O)[C@@H]1C[C@@H](O)[C@H](n2c(=O)sc3c(=O)[nH]c(N)nc32)O1` (single isomer, unassigned) [Example 19-A], the EC50 was determined as 38 µM.

`C=CCC(O)[C@@H]1C[C@@H](O)[C@H](n2c(=O)sc3c(=O)[nH]c(N)nc32)O1` (single isomer, unassigned) [Example 8-A]: the EC50 came to 87 µM.

In the case of `Nc1nc2c(sc(=O)n2[C@@H]2O[C@H](CO)C[C@H]2N2CCCC2)c(=O)[nH]1` [Example 32, 5-Amino-3-[(2R,3R,5S)-5-(hydroxymethyl)-3-pyrrolidin-1-yl-tetrahydrofuran-2-yl]-6H-thiazolo[4,5-d]pyrimidine-2,7-dione], the EC50 was found to be 67 µM.

With `Nc1nc2c(sc(=O)n2[C@@H]2O[C@H](C(O)C3CC3)C[C@H]2O)c(=O)[nH]1` (single isomer, unassigned) [Example 14-A], the EC50 was 48 µM.

On to `C=CC(O)[C@@H]1C[C@@H](O)[C@H](n2c(=O)sc3c(=O)[nH]c(N)nc32)O1` (single isomer, unassigned) [Example 24-A], for which the EC50 was 70 µM.

`C#CC(O)[C@@H]1C[C@@H](O)[C@H](n2c(=O)sc3c(=O)[nH]c(N)nc32)O1` (single isomer, unassigned) [Example 18-A]: the concentration giving a half-maximal response (EC50) was determined as 12 µM.

`CCCC(O)[C@@H]1C[C@@H](O)[C@H](n2c(=O)sc3c(=O)[nH]c(N)nc32)O1` (single isomer, unassigned) [Example 10-A]: the EC50 is 63 µM.

On to `CCC(O)[C@@H]1C[C@@H](N=[N+]=[N-])[C@H](n2c(=O)sc3c(=O)[nH]c(N)nc32)O1` (single isomer, unassigned) [Example 23-A], for which the EC50 turned out to be 26 µM.

For the compound `Nc1nc2c(sc(=O)n2[C@@H]2O[C@H](CO)C[C@H]2O)c(=O)[nH]1` [ANA-122, reference compound], the EC50 worked out at 446 µM.

As for `C[C@@H]1C[C@@H]([C@@H](O)C2CC2)O[C@H]1n1c(=O)sc2c(=O)[nH]c(N)nc21` [Example 30, 5-Amino-3-[(2R,3R,5S)-5-[(S)-cyclopropyl(hydroxy)methyl]-3-methyl-tetrahydrofuran-2-yl]-6H-thiazolo[4,5-d]pyrimidine-2,7-dione], the concentration giving a half-maximal response (EC50) was found to be 15 µM.

For `CCC[C@@H]1C[C@@H]([C@@H](O)CC)O[C@H]1n1c(=O)sc2c(=O)[nH]c(N)nc21` [Example 27-A, 5-amino-3-[(2R,3R,5S)-5-[(1S)-1-hydroxypropyl]-3-propyl-tetrahydrofuran-2-yl]-6H-thiazolo[4,5-d]pyrimidine-2,7-dione], the EC50 is 15 µM.

On to `CC#C[C@H](O)[C@@H]1C[C@@H](C)[C@H](n2c(=O)sc3c(=O)[nH]c(N)nc32)O1` [Example 29, 5-Amino-3-[(2R,3R,5S)-5-[(1S)-1-hydroxybut-2-ynyl]-3-methyl-tetrahydrofuran-2-yl]-6H-thiazolo[4,5-d]pyrimidine-2,7-dione], for which the EC50 turned out to be 29 µM.

On to `CC[C@H](OC(=O)C(C)C)[C@@H]1C[C@@H](O)[C@H](n2c(=O)sc3c(=O)[nH]c(N)nc32)O1` [Example 42, [(1S)-1-[(2S,4R,5R)-5-(5-Amino-2,7-dioxo-6H-thiazolo[4,5-d]pyrimidin-3-yl)-4-hydroxy-tetrahydrofuran-2-yl]propyl] 2-methylpropanoate], for which the EC50 was found to be 51 µM.

As for `CS[C@@H]1C[C@@H](CO)O[C@H]1n1c(=O)sc2c(=O)[nH]c(N)nc21` [Example 39, 5-Amino-3-[(2R,3R,5S)-5-(hydroxymethyl)-3-methylsulfanyl-tetrahydrofuran-2-yl]-6H-thiazolo[4,5-d]pyrimidine-2,7-dione], the EC50 worked out at 62 µM.

Consider `C=CC[C@@H]1C[C@@H](C(O)CC)O[C@H]1n1c(=O)sc2c(=O)[nH]c(N)nc21` (stereo partly drawn) [Example 26, 3-[(2R,3R,5S)-3-allyl-5-(1-hydroxypropyl)tetrahydrofuran-2-yl]-5-amino-6H-thiazolo[4,5-d]pyrimidine-2,7-dione], for which the EC50 turned out to be 29 µM.

With `C=CC[C@@H]1C[C@@H](C(O)CC)O[C@H]1n1c(=O)sc2c(=O)[nH]c(N)nc21` (single isomer, unassigned) [Example 26-A], the EC50 stood at 12 µM.

`C[C@H](O)[C@@H]1C[C@@H](C)[C@H](n2c(=O)sc3c(=O)[nH]c(N)nc32)O1` [Example 31, 5-Amino-3-[(2R,3R,5S)-5-[(1S)-1-hydroxyethyl]-3-methyl-tetrahydrofuran-2-yl]-6H-thiazolo[4,5-d]pyrimidine-2,7-dione]: the EC50 is 70 µM.

Regarding `CCC(O)[C@@H]1C[C@@H](SC)[C@H](n2c(=O)sc3c(=O)[nH]c(N)nc32)O1` (single isomer, unassigned) [Example 22-A], the EC50 was 14 µM.

A further data set deals with HBV (hepatitis B virus). The experiment in a line: In vivo antiviral efficacy in AAV-HBV mouse model. The conditions noted are these: 100 mg/kg PO, QOD, after the 6-week treatment, mouse serum.
Description: The treatment started after the mice were infected with AAV-HBV for 29 days. They were given the treatment for 42 days, and HBV DNA and HBsAg in mouse serum were measured on the indicated time points by RT-qPCR and HBsAg CLIA respectively. The results were presented as mean±SEM. LLQ: lower limit of quantification.
This mouse model for HBV infection was generated by injecting C57BL/6 mice with a recombinant adeno-associated virus (AAV) carrying a replicable HBV (hepatitis B virus) genome (AAV-HBV).
For each study, ten 4-5 week old male C57BL/6 mice, specific pathogen free, were available from Shanghai Laboratory Animal Center of Chinese Academy of Sciences (SLAC) and housed in an animal care facility in individually ventilated cages under controlled temperature and light conditions following the Institutional Animal Care guidelines. AAV-HBV virus stock was purchased from Beijing FivePlus Molecular Medicine Institute (Beijing, China). C57BL/6 mice were injected with 200 μL of recombinant virus in saline buffer through tail vein injection. The mice were bled on day 14 post injection to monitor the levels of HBsAg, HBeAg, and HBV genomic DNA in serum, and randomly grouped based on these HBV biomarker levels.
All the mice were treated for a total of 6 weeks. Serum samples were collected twice a week to monitor the levels of HBV biomarkers. Serum HBsAg was measured using CLIA kits (Autobio Diagnostics Co., Ltd, Zhengzhou, China) according to the manufacturer's instructions. The lower limit of quantification (LLQ) for HBsAg was 0.1 ng/mL. Serum dilution of 500-fold (for HBsAg) was used to obtain values within the linear range of the standard curve. Serum HBV DNA was extracted using a MagNA Pure 96 DNA and Viral NA Small Volume Kit (Roche) following the manufacturer's instructions. The DNA samples were analyzed by real-time quantitative PCR (qPCR) using a HBV-specific primer and probe set for specific amplification and detection of a 128 bp HBV genome region from the nucleotide 2969 to 3096. The LLQ for HBV DNA was 20 copies/μL.
Take `CCC(OC(C)=O)[C@@H]1C[C@@H](O)[C@H](n2c(=O)sc3cnc(N)nc32)O1` (single isomer, unassigned) [Example 4-A]: the “reduction in HBV DNA” value is reported as “more than 2 log” and the “reduction in HBsAg” value was 1.5 log.

The data set is the same for the next values; noted with them: 300 mg/kg PO, QOD, at the end of the treatment (6 weeks), mouse serum.
`CCC(OC(C)=O)[C@@H]1C[C@@H](O)[C@H](n2c(=O)sc3cnc(N)nc32)O1` (single isomer, unassigned) [Example 4-A]: the “reduction in HBV DNA” value was “more than 3 log” and the “reduction in HBsAg” value is 2.7 log.
